Experimental data as given in PMC6885504 (American Journal of Cardiovascular Drugs, 2019).
“Also recorded” adds a separate entry of the source. Where two headings read alike, the source gives them in different places.

Legend:
[1] = type: in vivo, human
Safety assessments = type: in vivo, human; conditions: for safety and tolerability: apixaban 10 mg alone and in combination with clarithromycin IR 500 mg bid, healthy adults
[2] = cited from earlier work
[3] = cited from earlier work; remark: listed apart in the source
CYP3A4 = conditions: cited from earlier work
[4] = coadministered with multiple doses of clarithromycin vs apixaban alone
[5] = during treatment with the agent alone, of 19 subjects
[6] = whole study (apixaban alone, clarithromycin alone, both together)

SMILES	increase in apixaban AUC(0–T) [1, 4] [%]	increase in apixaban AUC(INF) [1, 4] [%]	increase in apixaban Cmax [1, 4] [%]	time at which apixaban reached maximum concentration after dosing ([1]; concentration–time profiles day 1 and day 8 (Fig. 2)) [h]	safety and tolerability (Safety assessments)	safety and tolerability (Safety assessments; listed as apixaban)	subjects experiencing additional AEs (Safety assessments; apixaban and clarithromycin together, of 18 subjects) [%]	subjects reporting at least one AE (Safety assessments; [5]) [%]	bleeding-related AEs, deaths, serious AEs (Safety assessments; [6])	intensity of adverse events (Safety assessments; [6])	half-life [2] [h]	oral bioavailability [2] [%]	renal clearance as share of total systemic clearance [2] [%]	change in apixaban exposure ([3]; coadministered with ketoconazole vs apixaban alone)	decrease in apixaban exposure ([3]; coadministered with rifampin vs apixaban alone) [%]	subjects with AEs considered related to study drug (Safety assessments; [5]) [%]	increase in AUC of midazolam (CYP3A4; clarithromycin as inhibitor)	increase in AUC of midazolam (CYP3A4; ketoconazole as inhibitor)
COc1ccc(-n2nc(C(N)=O)c3c2C(=O)N(c2ccc(N4CCCCC4=O)cc2)CC3)cc1 [Apixaban]	60	60	30	3	Apixaban 10 mg alone and in combination with twice-daily clarithromycin immediate release 500 mg was safe and generally well-tolerated by healthy adult volunteers.	safe and generally well-tolerated	22.2	5.3	no bleeding-related AEs, deaths, or serious AEs	mild	12	~50	~27	approximately doubled; also recorded: twofold	50			
CC[C@H]1OC(=O)[C@H](C)[C@@H](O[C@H]2C[C@@](C)(OC)[C@@H](O)[C@H](C)O2)[C@H](C)[C@@H](O[C@@H]2O[C@H](C)C[C@H](N(C)C)[C@H]2O)[C@](C)(OC)C[C@@H](C)C(=O)[C@H](C)[C@@H](O)[C@]1(C)O [clarithromycin]								42.1								26.3	260–860%	
CC(=O)N1CCN(c2ccc(OCC3COC(Cn4ccnc4)(c4ccc(Cl)cc4Cl)O3)cc2)CC1 (stereo not shown) [ketoconazole]																		420–1500%
